Assays:
CEM cells = assay: Apoptotic cell death by DNA fragmentation, CEM; format: cell-based, human; details: for effect on ABT-263-induced apoptosis: ABT-263 plus 10 μM flavone, 30 h
Protocol: (§1) The human malignant cell lines used in this study are the T cell leukemic cell lines CEM, Molt-4 and Jurkat (J16), the HL cell line KM-H2, the cervix adenocarcinoma cell line HeLa, the melanoma cell line A375, the hepatocellular carcinoma cell line HepG2, the pancreatic carcinoma cell line MiaPaca, the breast cancer cell line MCF-7, the prostatic cancer cell line PC3 and the colon carcinoma cell line HCT116. All cells were cultured in RPMI 1640 or DMEM medium (GIBCO laboratories, Grand Island, USA), supplemented with 10% FCS, 100 Units/ml penicillin (GIBCO), 100 μg/m1 streptomycin (GIBCO) and 2 mM L-glutamine (GIBCO) at 37° C. and 5%. Wogonin (BIOTREND Chemicals AG, Wangen, Switzerland), apigenin, chrysin, luteolin and baicalein (Sigma, St. Louis, USA) were solved in dimethyl sulfoxide (DMSO; Roth, Karlsruhe, Germany) at a stock concentration of 50 mM. Cells were treated with different concentrations of different flavones or ABT-263 (Selleck Chemicals, Houston, USA) for 24 to 48 h. Apoptotic cell death was examined by analysis of DNA fragmentation as previously described 23 (Fas et al.,2006, Blood 108: 3700-6). Results are presented as % specific DNA fragmentation using the formula: (percentage of experimental apoptosis-percentage of spontaneous apoptosis)/(100-percentage of spontaneous apoptosis)×100.

Jurkat (J16) cells = assay: Apoptotic cell death by DNA fragmentation, Jurkat; format: cell-based, human
Protocol: as §1

Molt-4 cells = assay: Apoptotic cell death by DNA fragmentation, Molt-4; format: cell-based, human
Protocol: as §1

Mcl-1 = assay: Western blot analysis of Mcl-1 expression; format: cell-based, human; details: for Mcl-1 protein expression: 50 μM flavone
Excerpt: For each sample, 1×10^7 cells were lysed as previously described. 23 Equal amounts of protein were separated on 5-13% SDS-PAGE depending on the molecular sizes of the proteins and blotted onto a nitrocellulose membrane (Amersham Biosciences, Little Chalfon, UK) as previously described. 23 The following antibodies were used: Bad, Bax, Bcl-xL, Bcl-w, XIAP from Cell Signaling Technology, Danvers, USA; Bcl-2 (sc-509) and Mcl-1 (sc-819) from Santa Cruz Biotechnology, Heidelberg, Germany; Tubulin and actin from Sigma, Saint Louis, USA.

[1] = system: colon carcinoma cell line HCT116; assay: Apoptotic cell death by DNA fragmentation, HCT116; format: cell-based, human; details: ABT-263 plus 50 μM wogonin, 48 h
Protocol: as §1

CEM tumors = assay: CEM xenograft in immunodeficient mice; format: in vivo; details: Rag2-/-/Il2rg-/- mice, s.c. CEM; ABT-263 50 mg/kg p.o. and/or wogonin 50 mg/kg i.p.
Protocol: Immunodeficient mice (Rag2−/−/II2rg−/−) were implanted subcutaneously in the dorsal flank region with CEM (5×10^7 cells). After the tumors reached to approximate 35 mm3, tumor size matched mice were treated with ABT-263 (50 mg/kg, once in each third or fourth day) in the presence or absence of 50 mg/kg wogonin. ABT-263 was formulated according to the protocol previously described 9 and administered p.o. Wogonin dissolved in DMSO was diluted in sunflower oil and administered i.p. For combination studies, ABT-263 was given 2 h before wogonin. The control group was treated in an analogous manner with the vehicle. The tumor size was measured with a micrometer caliper two to three times weekly and the tumor volume (V) was calculated by the formula V=(width2×length)/2. All protocols using and maintaining animals were approved by the German Animal Protection Authority (Office Regierungsprasidium Karlsruhe) in Karlsruhe.

Human platelets = assay: Platelet apoptotic cell death by annexin V/FITC staining; format: cell-based; details: ABT-263 with wogonin, 1 h
Protocol: (§2) Normal T cells were isolated from peripheral blood of healthy donors and activated to proliferate as described in the Materials and Methods. The proliferating T cells were treated with different concentrations of ABT-263 in the absence or presence of wogonin as indicated. Apoptotic cell death was determined by DNA fragmentation. Results are presented as pooled data from four independent donors. (B) Proliferating normal T cells express higher levels of Mcl-1 and Bcl-2 than leukemic Jurkat and Molt-4 T cells. Total cell lysates of activated T cells from three healthy donors were compared with leukemic cells for the expression levels of Mcl-1, Bcl-2, Bcl-xL and Bcl-w. CDK6 is known to be over-expressed in many tumor cells and was used as a marker for malignant cells. Representative blots from two independent experiments are shown. […] Human platelets in 10% FCS were treated with different concentrations of ABT-263 in the absence or presence of wogonin as indicated. After 1 h treatment, apoptotic cell death was determine by staining with annexin V/FITC. Results are average of two independent assays.
Human peripheral blood T cells were prepared as described previously 23 and were more than 90% CD3 positive. For generation of proliferating T cells, freshly isolated T cells were cultured at 2×10^6 cells/ml and were activated with 1 mg/ml PHA overnight. […]

melanoma cell line A375 = assay: Apoptotic cell death by DNA fragmentation, A375; format: cell-based, human; details: ABT-263 plus 50 μM wogonin, 48 h
Protocol: as §1

[2] = system: cervix adenocarcinoma cell line HeLa; assay: Apoptotic cell death by DNA fragmentation, HeLa; format: cell-based, human; details: ABT-263 plus 50 μM wogonin, 48 h
Protocol: as §1

[3] = system: ABT-263-resistant Jurkat (Jurkat-R); assay: Apoptotic cell death by DNA fragmentation, ABT-263-resistant Jurkat; format: cell-based, human; details: Jurkat-R; ABT-263 with wogonin
Protocol: (§3) Wogonin (BIOTREND Chemicals AG, Wangen, Switzerland), apigenin, chrysin, luteolin and baicalein (Sigma, St. Louis, USA) were solved in dimethyl sulfoxide (DMSO; Roth, Karlsruhe, Germany) at a stock concentration of 50 mM. Cells were treated with different concentrations of different flavones or ABT-263 (Selleck Chemicals, Houston, USA) for 24 to 48 h. Apoptotic cell death was examined by analysis of DNA fragmentation as previously described 23 (Fas et al.,2006, Blood 108: 3700-6). Results are presented as % specific DNA fragmentation using the formula: (percentage of experimental apoptosis-percentage of spontaneous apoptosis)/(100-percentage of spontaneous apoptosis)×100.

[4] = system: ABT-263-resistant CEM (CEM-R); assay: Apoptotic cell death by DNA fragmentation, ABT-263-resistant CEM; format: cell-based, human; details: CEM-R; ABT-263 with wogonin
Protocol: as §3

[5] = system: proliferating normal peripheral blood T cells; assay: Apoptotic cell death by DNA fragmentation, proliferating normal T cells; format: cell-based; details: ABT-263 with wogonin, four healthy donors
Protocol: as §2
Human peripheral blood T cells were prepared as described previously 23 and were more than 90% CD3 positive. For generation of proliferating T cells, freshly isolated T cells were cultured at 2×10^6 cells/ml and were activated with […] PHA overnight. Activated T cells were then washed three times and cultured for additional 5 days in the presence of 25 U/ml IL-2. Platelets were prepared as described in Vogler et al., 2011, Blood 117: 7145-54.
as §3, with “Results are presented as % specific DNA fragmentation using the formula: (percentage of experimental apoptosis-percentage of spontaneous apoptosis)/(100-percentage of spontaneous apoptosis)×100.” left out

[6] = system: hepatocellular carcinoma cell line HepG2; assay: Apoptotic cell death by DNA fragmentation, HepG2; format: cell-based, human; details: HepG2; ABT-263 plus 50 μM wogonin, 48 h
Protocol: as §1

[7] = system: prostatic cancer cell line PC3; assay: Apoptotic cell death by DNA fragmentation, PC3; format: cell-based, human; details: ABT-263 plus 50 μM wogonin, 48 h
Protocol: as §1

[8] = system: breast cancer cell line MCF-7; assay: Apoptotic cell death by DNA fragmentation, MCF-7; format: cell-based, human; details: ABT-263 plus 50 μM wogonin, 48 h
Protocol: as §1

[9] = ABT-263 plus different concentrations of wogonin, 24 h
[10] = wogonin alone at the concentrations used for combination, 24 h
[11] = Jurkat 16, ABT-199 with wogonin

CC1(C)CCC(CN2CCN(c3ccc(C(=O)NS(=O)(=O)c4ccc(NCC5CCOCC5)c([N+](=O)[O-])c4)c(Oc4cnc5[nH]ccc5c4)c3)CC2)=C(c2ccc(Cl)cc2)C1 [ABT-199, 4-[4-[[2-(4-chlorophenyl)-4,4-dimethyl-1-cyclohexen-1-yl]methyl]-1-piperazinyl]-N-[[3-nitro-4-[[(tetrahydro-2H-pyran-4-yl)methyl]amino]phenyl]sulfonyl]-2-(1H-pyrrolo[2,3-b]pyridin-5-yloxy)-Benzamide]
EC50 (CEM cells; Homo sapiens, CCRF-CEM, ABT-199 alone, read-out: concentration inducing 50% apoptotic cell death): 5 to 10 µM | EC50 (Jurkat (J16) cells; Homo sapiens, Jurkat 16, ABT-199 alone, read-out: concentration inducing 50% apoptotic cell death): 5 to 10 µM | EC50 (Molt-4 cells; Homo sapiens, ABT-199 alone, read-out: concentration inducing 50% apoptotic cell death): 5 to 10 µM

O=c1cc(-c2ccccc2)oc2cc(O)cc(O)c12 [chrysin]
effect on ABT-263-induced apoptosis (CEM cells): enhance ABT-263-induced apoptosis in CEM cells in a dose-dependent manner | Mcl-1 protein expression (Mcl-1; CEM, 8 h): Down-regulation of Mcl-1 protein expression

O=c1cc(-c2ccc(O)cc2)oc2cc(O)cc(O)c12 [Apigenin]
effect on ABT-263-induced apoptosis (CEM cells): enhance ABT-263-induced apoptosis in CEM cells in a dose-dependent manner | Mcl-1 protein expression (Mcl-1; CEM, 8 h): Down-regulation of Mcl-1 protein expression

COc1c(O)cc(O)c2c(=O)cc(-c3ccccc3)oc12 [wogonin, 5,7-dihydroxy-8-methoxy-2-phenyl-4H-chromen-4-one]
reduction of the ABT-199 dose (CEM cells; ABT-199 with wogonin): approx. 5 fold | sensitization to ABT-199-mediated apoptosis (CEM cells; ABT-199 with wogonin): sensitized | effect on killing efficacy of ABT-263 (CEM cells; [9]): enhanced the killing efficacy of ABT-263 in a dose-dependent manner | reduction of ABT-263 dose required for inducing 50-70% cell death (CEM cells; in presence of wogonin): approximately 10 times | cell death by wogonin alone (CEM cells; [10]): only minimal cell death | effect on ABT-263-mediated apoptotic cell death [1]: dose-dependent increase | tumor growth / tumor response (CEM tumors): no significant inhibition of tumor growth | effect on toxicity of ABT-263 to platelets (Human platelets): did not enhance the toxicity of ABT-263 | effect on toxicity of ABT-263 to platelets (Human platelets; listed as Wogonin): does not enhance the toxicity of ABT-263 | Mcl-1 expression (Mcl-1; ABT-263-resistant Jurkat and CEM, wogonin): significantly inhibited Mcl-1 expression | Mcl-1 expression (Mcl-1; CEM, Jurkat and Molt-4, 50 μM wogonin, 8 h): down-regulation of Mcl-1 expression | Mcl-1 expression (Mcl-1; CEM, Jurkat and Molt-4, 50 μM wogonin, 8 h, listed as Wogonin): down-regulates Mcl-1 expression | Mcl-1 expression (Mcl-1; all tumor cell lines tested other than MiaPaca, 50 μM wogonin, 8 h): down-regulated | reduction of the ABT-199 dose (Jurkat (J16) cells; [11]): approx. 5 fold | sensitization to ABT-199-mediated apoptosis (Jurkat (J16) cells; [11]): sensitized | effect on killing efficacy of ABT-263 (Jurkat (J16) cells; Jurkat, ABT-263 plus different concentrations of wogonin, 24 h): enhanced the killing efficacy of ABT-263 in a dose-dependent manner | reduction of ABT-263 dose required for inducing 50-70% cell death (Jurkat (J16) cells; Jurkat, in presence of wogonin): approximately 10 times | cell death by wogonin alone (Jurkat (J16) cells; Jurkat, wogonin alone at the concentrations used for combination, 24 h): only minimal cell death | effect on ABT-263-mediated apoptotic cell death (melanoma cell line A375): dose-dependent increase | effect on ABT-263-mediated apoptotic cell death [2]: dose-dependent increase | re-sensitization to ABT-263-induced apoptotic cell death [3]: re-sensitized to ABT-263 treatment | reduction of the ABT-199 dose (Molt-4 cells; ABT-199 with wogonin): approx. 5 fold | sensitization to ABT-199-mediated apoptosis (Molt-4 cells; ABT-199 with wogonin): sensitized | effect on killing efficacy of ABT-263 (Molt-4 cells; [9]): enhanced the killing efficacy of ABT-263 in a dose-dependent manner | reduction of ABT-263 dose required for inducing 50-70% cell death (Molt-4 cells; in presence of wogonin): approximately 10 times | cell death by wogonin alone (Molt-4 cells; [10]): only minimal cell death | re-sensitization to ABT-263-induced apoptotic cell death [4]: re-sensitized to ABT-263 treatment | effect on toxicity of ABT-263 to normal proliferating T cells [5]: did not enhance the toxicity of ABT-263 | effect on toxicity of ABT-263 to normal proliferating T cells ([5]; listed as Wogonin): does not potentiate the toxicity of ABT-263 | effect on ABT-263-mediated apoptotic cell death [6]: dose-dependent increase | effect on ABT-263-mediated apoptotic cell death [7]: dose-dependent increase | effect on ABT-263-mediated apoptotic cell death [8]: dose-dependent increase

O=c1cc(-c2ccc(O)c(O)c2)oc2cc(O)cc(O)c12 [luteolin]
effect on ABT-263-induced apoptosis (CEM cells): enhance ABT-263-induced apoptosis in CEM cells in a dose-dependent manner | Mcl-1 protein expression (Mcl-1; CEM, 8 h): Down-regulation of Mcl-1 protein expression

O=c1cc(-c2ccccc2)oc2cc(O)c(O)c(O)c12 [baicalein]
effect on ABT-263-induced apoptosis (CEM cells): enhance ABT-263-induced apoptosis in CEM cells in a dose-dependent manner | Mcl-1 protein expression (Mcl-1; CEM, 8 h): Down-regulation of Mcl-1 protein expression

Source: patent US20160158189A1, “SENSITIZATION OF CANCER CELLS TO APOPTOSIS INDUCTION BY FLAVAGLINES AND 5-HYDROXY-FLAVONES” (DEUTSCHES KREBSFORSCHUNGSZENTRUM, priority 2013, published 2016)
